Assay results taken from US8277839B2, “Oral pharmaceutical composition of anilinopyrimidine, preparation and use thereof” (Ares Trading S.A., priority 2006, dated 2012).
In brackets after ≈: the same amount, converted by molar mass.

Legend:
[1] = visual solubility test (apparent solubility in different excipients); type: physicochemical; details: for solubility: thermodynamic from solid
Experimental: Subsequently in order to analyze the solubility of the anilinopyrimidine of Formula (I) and to identify the preferred excipients, ten solutions of batch FD050007 and ten solution of the starting batch 61569-02 were prepared and analized with a visual solubility test.
A data summary for the anilinopyrimidine derivative of Formula (I) apparent solubility in different excipients is given in Table 2.

[2] = system: primary fresh cells from Acute Myeloid Leukemia (AML) patients; details: most primary fresh cells from AML patients; cited from earlier work
[3] = in Cremophor EL (castor oil-ethylene oxide)
[4] = in Labrafil M1944CS (oleoyl macrogol glyceride)

SMILES | solubility ([1]; HP-β-CD, aqueous with cosolvent or surfactant or cyclodextrin, in HP-β-CD) | solubility ([1]; Labrasol (caprylocapryoyl macrogol glyceride), oil or lipid, in Labrasol (caprylocapryoyl macrogol glyceride)) | solubility ([1]; Transcutol HP, organic solvent or mixture, in Transcutol HP) | apparent solubility ([1]; in Capmul GMO-50) | apparent solubility ([1]; in Capmul MCM C10 (glyceril monocaprate)) | apparent solubility ([1]; in Capmul MCM-Lutrol E600 1:1) | apparent solubility [1, 3] | apparent solubility [1, 4] | apparent solubility ([1]; in Lutrol E600 (PEG 600)) | apparent solubility ([1]; in Vitamin E TPGS) | solubility ([1]; Capmul GMO-50, oil or lipid, in Capmul GMO-50) | solubility ([1]; Capmul MCM C10 (glyceril monocaprate), oil or lipid, in Capmul MCM C10 (glyceril monocaprate)) | solubility ([1]; Capmul MCM-Lutrol E600 1:1, organic solvent or mixture, in Capmul MCM-Lutrol E600 1:1) | solubility ([1]; Lutrol E600 (PEG 600), organic solvent or mixture, in Lutrol E600 (PEG 600)) | apparent solubility ([1]; in Labrasol (caprylocapryoyl macrogol glyceride)) | apparent solubility ([1]; in Transcutol HP) | cell death [2] | solubility, milled versus starting batch ([1]; in particular in Capmul MCM C10, Lutrol E600 and Capmul MCM-Lutrol E600 1:1)
CC(=O)N1CCN(C(=O)c2ccc(Nc3nccc(-c4ccc(Cl)cc4)n3)cc2)CC1 [FD050007, 1-(4{4-[4-(4-Chloro-phenyl)-pyrimidin-2-ylamino]-benzoyl}-piperazin-1-yl)-ethanone] | 5.75 mg/mL (≈ 13.2 mM) | 26.3 mg/mL (≈ 60.3 mM) | 26.2 mg/mL (≈ 60.1 mM) | 19.6 mg/mL | 54 mg/mL | 115 mg/mL | Suspension | Suspension | 115 mg/mL | Solid | – | – | – | – | – | – | – | –
CC(=O)N1CCN(C(=O)c2ccc(Nc3nccc(-c4ccc(Cl)cc4)n3)cc2)CC1 [Formula 61569-02, 1-(4{4-[4-(4-Chloro-phenyl)-pyrimidin-2-ylamino]-benzoyl}-piperazin-1-yl)-ethanone] | – | – | – | – | – | – | Suspension | Suspension | – | Solid | 20.2 mg/mL | 59.5 mg/mL | 115 mg/mL | 104 mg/mL | Suspension | Suspension | – | –
CC(=O)N1CCN(C(=O)c2ccc(Nc3nccc(-c4ccc(Cl)cc4)n3)cc2)CC1 [Formula (I), 1-(4{4-[4-(4-Chloro-phenyl)-pyrimidin-2-ylamino]-benzoyl}-piperazin-1-yl)-ethanone] | – | – | – | – | – | – | – | – | – | – | – | – | – | – | – | – | induces cell death | better solubility when milled
